From patent publication US12551421B2, “N-heptyl-glyceryl ether and synergistically active preservatives” (Evonik Operations GmbH, priority 2020, dated 2026)
Converted amounts (≈) assume the structure as drawn.

Assays:
[1] = tested on: A. brasiliensis; experiment: Preservation challenge test in O/W emulsion base #1, log reduction of viable microorganisms by plate count; type: cell-based; conditions: combined with another antimicrobial component in base #1, up to 28 days, FIGS. 1 to 12
[2] = tested on: S. aureus; experiment: as above; type: cell-based; conditions: combined with another antimicrobial component in base #1, up to 28 days, FIGS. 12 to 19
Method: (§1) An O/W emulsion (base #1) was prepared as follows, and n-heptyl glyceryl ether, further antimicrobial compounds and combinations thereof were added to these bases:
(§2) Processing: • 1. Premix phase A and B separately and heat up to 78° C. • 2. Add phase A1 to A under stirring and wait until everything is dissolved. • 3. Add phase B to A under stirring. (Speed 6, for 30 sec.) Homogenize for 90 sec. using an Ultra Turrax. • 4. Cool down using a water bath • 5. Adjust pH.
(§3) Preparatory to the test, the surface of casein soya bean digest agar for bacteria or Saboraud-dextrose agar without the addition of antibiotics for fungi is inoculated with the recently grown stock culture of each of the specified microorganisms. […]
(§4) To count the viable microorganisms in the inoculated products, the agar medium used for the initial cultivation of the respective microorganism is used. […] At zero hour and at 7, 14 and 28 days 1 ml is removed from the sample and the number of viable microorganisms is determined by plate count. […]
To determine the efficacy of the antimicrobial composition, n-heptyl glyceryl ether, another antimicrobial compound and combinations thereof were incorporated into base as shown above. The antimicrobial activity against S. aureus was then evaluated as described above. […]

[3] = tested on: C. albicans; experiment: as above; type: cell-based; conditions: combined with another antimicrobial component in base #1, up to 28 days, FIGS. 20 to 25
Method: as §1, §2, §3, §4
To determine the efficacy of the antimicrobial composition, n-heptyl glyceryl ether, another antimicrobial compound and combinations thereof were incorporated into base #1 as shown above. The antimicrobial activity against C. albicans was then evaluated as described above. […]

[4] = Water solubility / critical micelle concentration of n-heptyl-glyceryl ether; type: physicochemical; conditions: water, without component B); read-out: water solubility before micelles are forming
From the text: N-heptyl-glyceryl ether has a water solubility of approximately 2 g/l before micelles are forming.

CCCCC(CC)COCC(O)CO (stereo not shown) [ethylhexyl glycerin, reference compound]
synergistic antimicrobial effect (log 10 reduction of combination greater than sum of individual components) [1]: No such synergism | synergistic antimicrobial effect (log 10 reduction of combination greater than sum of individual components) [2]: No such synergism | synergistic antimicrobial effect (log 10 reduction of combination greater than sum of individual components) [3]: No such synergism

CCCCCCCOCC(O)CO (stereo not shown) [n-heptyl glyceryl ether]
synergistic antimicrobial effect (log 10 reduction of combination greater than sum of individual components) [1]: synergistic antimicrobial effects | synergistic antimicrobial effect (log 10 reduction of combination greater than sum of individual components) [2]: synergistic antimicrobial effects | synergistic antimicrobial effect (log 10 reduction of combination greater than sum of individual components) [3]: synergistic antimicrobial effects | solubility [4]: ~2000 µg/mL (≈ 10.5 mM)
